Measured values published in patent publication US10189836B2, “Therapeutic compounds, compositions and methods of use thereof” (Genentech, Inc., priority 2015, dated 2019).
Read-outs that look alike come from different tables or passages of the source.

Key:
[1] = target: isolated recombinant JAK1 kinase domain (Homo sapiens (Human), UniProt P23458); assay: JAK1 enzyme assay (Caliper LabChip, Ki); assay type: biochemical
[2] = target: isolated recombinant JAK2 kinase domain (Homo sapiens (Human), UniProt O60674); assay: JAK2 enzyme assay (Caliper LabChip, Ki); assay type: biochemical
Chain of isolated recombinant JAK2 kinase domain (O60674 849-1124): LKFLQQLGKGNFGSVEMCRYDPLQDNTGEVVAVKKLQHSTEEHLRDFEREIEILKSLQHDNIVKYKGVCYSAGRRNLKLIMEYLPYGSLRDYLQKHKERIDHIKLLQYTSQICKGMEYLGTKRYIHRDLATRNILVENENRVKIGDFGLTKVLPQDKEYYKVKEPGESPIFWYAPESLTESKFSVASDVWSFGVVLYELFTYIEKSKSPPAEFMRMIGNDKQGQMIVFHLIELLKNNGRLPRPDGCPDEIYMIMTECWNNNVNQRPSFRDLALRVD

[3] = isolated recombinant JAK1 kinase domain, 1.5 nM enzyme, ATP 25 μM
[4] = isolated recombinant JAK2 kinase domain, 0.2 nM enzyme, ATP 25 μM

Chain of isolated recombinant JAK1 kinase domain (P23458 875-1153): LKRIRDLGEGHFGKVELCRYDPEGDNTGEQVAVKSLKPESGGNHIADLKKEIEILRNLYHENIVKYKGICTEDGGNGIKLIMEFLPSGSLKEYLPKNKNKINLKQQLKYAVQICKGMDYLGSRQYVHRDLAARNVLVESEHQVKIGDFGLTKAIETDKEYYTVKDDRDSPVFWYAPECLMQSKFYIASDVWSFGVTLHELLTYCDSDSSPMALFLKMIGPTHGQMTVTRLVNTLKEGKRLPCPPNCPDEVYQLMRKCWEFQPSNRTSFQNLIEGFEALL

SMILES | Ki [1, 3] [nM] | Ki [2, 4] [nM] | Ki [1] [nM] | Ki [2] [nM]
CC(CC(F)(F)F)C(=O)N1C2CCC1CN(c1cccn3nc(Nc4cnn(CC(=O)N5CCN(C)CC5)c4)nc13)C2 (stereo not shown) [Example 47, 4,4,4-trifluoro-2-methyl-1-[3-[2-[[1-[2-(4-methylpiperazin-1-yl)-2-oxo-ethyl]pyrazol-4-yl]amino]-[1,2,4]triazolo[1,5-a]pyridin-8-yl]-3,8-diazabicyclo[3.2.1]octan-8-yl]butan-1-one] | 1.8 | 2 |  | 
CSc1cccc(S(=O)(=O)N2C3CCC2CN(c2cccn4nc(Nc5cnn(CC(=O)N6CCN(C)CC6)c5)nc24)C3)c1 [Example 169, 1-(4-methylpiperazin-1-yl)-2-[4-[[8-[8-(3-methylsulfanylphenyl)sulfonyl-3,8-diazabicyclo[3.2.1]octan-3-yl]-[1,2,4]triazolo[1,5-a]pyridin-2-yl]amino]pyrazol-1-yl]ethanone] | 0.6 | 0.6 |  | 
CN1CCN(C(=O)Cn2cc(Nc3nc4c(N5CC6CCC(C5)N6C(=O)C5(C#N)CCC5)cccn4n3)cn2)CC1 [Example 116, 1-[3-[2-[[1-[2-(4-methylpiperazin-1-yl)-2-oxo-ethyl]pyrazol-4-yl]amino]-[1,2,4]triazolo[1,5-a]pyridin-8-yl]-3,8-diazabicyclo[3.2.1]octane-8-carbonyl]cyclobutane-carbonitrile] | 2.5 | 3.5 |  | 
CN1CCN(C(=O)Cn2cc(Nc3nc4c(N5CC6CCC(C5)N6S(=O)(=O)c5ccc(F)cc5)cccn4n3)cn2)CC1 [Example 134, 2-[4-[[8-[8-(4-fluorophenyl)sulfonyl-3,8-diazabicyclo[3.2.1]octan-3-yl]-[1,2,4]triazolo[1,5-a]pyridin-2-yl]amino]pyrazol-1-yl]-1-(4-methylpiperazin-1-yl)ethanone] | 0.4 | 0.5 |  | 
CC(C)(C#N)CNC1CCN(C(=O)Cn2cc(Nc3nc4c(N5CC6CCC(C5)N6C(=O)N5CC(C(F)(F)F)C5)cccn4n3)cn2)CC1 [Example 131, 2,2-dimethyl-3-[[1-[2-[4-[[8-[8-[3-(trifluoromethyl)azetidine-1-carbonyl]-3,8-diazabicyclo[3.2.1]octan-3-yl]-[1,2,4]triazolo[1,5-a]pyridin-2-yl]amino]pyrazol-1-yl]acetyl]-4-piperidyl]amino]-propanenitrile] | 1.1 | 0.7 |  | 
O=C(Cn1cc(Nc2nc3c(N4CC5CCC(C4)N5C(=O)[C@H]4C[C@@H](C(F)(F)F)C4)cccn3n2)cn1)N1CCN(C2CSC2)CC1 [Example 82] | 0.4 | 0.3 |  | 
CN1CCN(C(=O)Cn2cc(Nc3nc4c(N5CC6CCC(C5)N6C(=O)Cc5ccccc5F)cccn4n3)cn2)CC1 [Example 64, 2-(2-fluorophenyl)-1-[3-[2-[[1-[2-(4-methylpiperazin-1-yl)-2-oxo-ethyl]pyrazol-4-yl]amino]-[1,2,4]triazolo[1,5-a]pyridin-8-yl]-3,8-diazabicyclo[3.2.1]octan-8-yl]ethanone] | 1.9 | 7.2 |  | 
CC(C(=O)N1CCN(C)CC1)n1cc(Nc2nc3c(N4CC5CCC(C4)N5C(=O)CCC(F)(F)F)cccn3n2)cn1 (stereo not shown) [Example 103, 4,4,4-trifluoro-1-[3-[2-[[1-[1-methyl-2-(4-methylpiperazin-1-yl)-2-oxo-ethyl]pyrazol-4-yl]amino]-[1,2,4]triazolo[1,5-a]pyridin-8-yl]-3,8-diazabicyclo[3.2.1]octan-8-yl]butan-1-one] | 1.5 | 1.7 |  | 
CN1CCN(C(=O)Cn2cc(Nc3nc4c(N5CC6CCC(C5)N6C(=O)C(C)(C)CC(F)(F)F)cccn4n3)cn2)CC1 [Example 71, 4,4,4-trifluoro-2,2-dimethyl-1-[3-[2-[[1-[2-(4-methylpiperazin-1-yl)-2-oxo-ethyl]pyrazol-4-yl]amino]-[1,2,4]triazolo[1,5-a]pyridin-8-yl]-3,8-diazabicyclo[3.2.1]octan-8-yl]butan-1-one] | 1.8 | 1.8 |  | 
CN1CCN(C(=O)Cn2cc(Nc3nc4c(N5CC6CCC(C5)N6C(=O)C5CC5C(F)(F)F)cccn4n3)cn2)CC1 (stereo not shown) [Example 14, 1-(4-methylpiperazin-1-yl)-2-[4-[[8-[8-[2-(trifluoromethyl)cyclopropanecarbonyl]-3,8-diazabicyclo[3.2.1]octan-3-yl]-[1,2,4]triazolo[1,5-a]pyridin-2-yl]amino]pyrazol-1-yl]ethanone] | 1 | 1.1 |  | 
CN1CCN(C(=O)Cn2cc(Nc3nc4c(N5CC6CCC(C5)N6S(=O)(=O)Cc5ccc(C#N)cc5)cccn4n3)cn2)CC1 [Example 168, 4-[[3-[2-[[1-[2-(4-methylpiperazin-1-yl)-2-oxo-ethyl]pyrazo1-4-yl]amino]-[1,2,4]triazolo[1,5-a]pyridin-8-yl]-3,8-diazabicyclo[3.2.1]octan-8-yl]sulfonylmethyl]-benzonitrile] | 2.7 | 4.4 |  | 
CN1CCN(C(=O)Cn2cc(Nc3nc4c(N5CC6CCC(C5)N6S(=O)(=O)c5ccccc5Cl)cccn4n3)cn2)CC1 [Example 111, 2-[4-[[8-[8-(2-chlorophenyl)sulfonyl-3,8-diazabicyclo[3.2.1]octan-3-yl]-[1,2,4]triazolo[1,5-a]pyridin-2-yl]amino]pyrazol-1-yl]-1-(4-methylpiperazin-1-yl)ethanone] | 0.5 | 0.5 |  | 
CN1CCN(C(=O)Cn2cc(Nc3nc4c(N5CC6CCC(C5)N6C(=O)C5CC5(F)F)cccn4n3)cn2)CC1 (stereo not shown) [Example 37, 2-[4-[[8-[8-(2,2-difluorocyclopropanecarbonyl)-3,8-diazabicyclo[3.2.1]octan-3-yl]-[1,2,4]triazolo[1,5-a]pyridin-2-yl]amino]pyrazol-1-yl]-1-(4-methylpiperazin-1-yl)ethanone] | 1.3 | 1.8 |  | 
CN1CCN(C(=O)Cn2cc(Nc3nc4c(N5C[C@H]6CC[C@@H](C5)[C@H]6OCc5cccc(CO)c5)cccn4n3)cn2)CC1 [Example 195, 1-(4-methylpiperazin-1-yl)-2-[4-[[8-[rac-(1S,5R)-8-[[3-(hydroxymethyl)phenyl]methoxy]-3-azabicyclo[3.2.1]octan-3-yl]-[1,2,4]triazolo[1,5-a]pyridin-2-yl]amino]pyrazol-1-yl]ethanone] | 0.4 | 0.7 |  | 
CN1CCN(C(=O)Cn2cc(Nc3nc4c(C5=CC6CCC(C5)N6C(=O)OCC(F)(F)F)cccn4n3)cn2)CC1 (stereo not shown) [Example 7, 2,2,2-trifluoroethyl 3-[2-[[1-[2-(4-methylpiperazin-1-yl)-2-oxo-ethyl]pyrazol-4-yl]amino]-[1,2,4]triazolo[1,5-a]pyridin-8-yl]-8-azabicyclo[3.2.1]oct-3-ene-8-carboxylate] |  |  | 0.7 | 0.7
CN1CCN(C(=O)Cn2cc(Nc3nc4c(N5CC6CCC(C5)N6C(=O)CCC(F)(F)F)cccn4n3)cn2)CC1 [Example 5, 4,4,4-trifluoro-1-[3-[2-[[1-[2-(4-methylpiperazin-1-yl)-2-oxo-ethyl]pyrazol-4-yl]amino]-[1,2,4]triazolo[1,5-a]pyridin-8-yl]-3,8-diazabicyclo[3.2.1]octan-8-yl]butan-1-one] | 0.6 | 1.2 |  | 
CN1CCN(C(=O)Cn2cc(Nc3nc4c(N5CC6CCC(C5)N6C(=O)N5CCC(C(F)(F)F)C5)cccn4n3)cn2)CC1 (stereo not shown) [Example 181, 1-(4-methylpiperazin-1-yl)-2-[4-[[8-[8-(3-(trifluoromethyl)pyrrolidine-1-carbonyl]-3,8-diazabicyclo[3.2.1]octan-3-yl]-[1,2,4]triazolo[1,5-a]pyridin-2-yl]amino]pyrazol-1-yl]ethanone] | 0.8 | 1.3 |  | 
